Test results as given in patent US20110256613A1, “Designer proton-channel transgenic algae for photobiological hydrogen production” (priority 2006, published 2011).

Columns and labels:
photosystem II (PSII) = settings: addition of HCO3− to HCO3−-depleted samples; cited from earlier work
algal H2 production = assay: Competitive inhibition of photosynthetic H2 production by O2; assay type: cell-based
From the text: (§1) (4). Competitive drainage of electrons by O2 in algal H2 production. We have recently discovered a new O2 sensitivity in algal H2 production that is distinct from the O2 sensitivity of hydrogenase per se. This O2 sensitivity is apparently linked to the photosynthetic H2 production pathway that is coupled to proton translocation across the thylakoid membrane. […] This inhibition is likely due to the background O2, which apparently serves as a terminal electron acceptor in competition with the H2-production pathway for photosynthetically generated electrons from water splitting. The Rubisco enzyme of the Calvin cycle is known to be also an oxygenase in addition to its carboxylase activity. […] That is, the drainage of electrons by O2 is likely to occur at the point of Rubisco, which is one of the key enzymes of the Calvin cycle. This competitive inhibition of H2 production by O2 is much more of a problem than the traditionally known O2 sensitivity of the hydrogenase per se. […] The competitive inhibition of H2 production by O2 is about 10 times more sensitive to O2 than the traditionally known O2 sensitivity of hydrogenase. The drainage of electrons by O2 in competition with the Fd/hydrogenase H2 production pathway is 10 time more sensitive to O2 than the O2 sensitivity of the hydrogenase. […]

algal hydrogenase = assay: O2 sensitivity of hydrogenase per se; assay type: biochemical
From the text: as §1

algal system = assay: Competitive inhibition of photosynthetic H2 production by CO2; assay type: cell-based
From the text: (2). Competitive inhibition of photosynthetic H2 production by CO2. […] This inhibition of H2 evolution by CO2 has been characterized in experimental studies at ORNL. […] Therefore, unless the alga is genetically reengineered to control the Calvin cycle activity, photosynthetic H2 production would require a nearly CO2-free environment.

[1] = tested on: photosystem II (PSII) water-splitting complex in algal cells; settings: cited from earlier work

O=C(O)O [HCO3^−, Bicarbonate]
stimulation of PSII electron-transport activity (photosystem II (PSII)): 6- to 7 fold

O=O [O2]
O2 concentration that inhibits photosynthetic H2 production (algal H2 production; lowest inhibiting concentration): 500-1000 ppm | O2 sensitivity of competitive inhibition of H2 production relative to O2 sensitivity of hydrogenase (algal H2 production; ratio versus hydrogenase O2 sensitivity): about 10 times | O2 concentration at which algal hydrogenase is still active (algal hydrogenase): 5000 ppm

O=C=O [CO2, carbon dioxide]
steady-state H2 photoevolution after CO2 injection (algal system; injection of 58 ppm CO2): inhibited to nearly zero | CO2 concentration to which the algal system is sensitive (algal system; lowest concentration, H2 photoevolution): 30 ppm

N#CC(C#N)=NNc1cccc(Cl)c1 [CCCP, carbonyl cyanide m-chlorophenylhydrazone]
side effects on photosynthetic activity (ADRY effect) [1]: undesirable side effects
